Several values for one entry are separate records, joined by “and”; a condition that tells them apart may be missing. Identical values can stand only once.
Columns and labels:
[1] = tested on: SW48 xenografts; test: SW48 cell-derived xenograft efficacy, HRO761 orally once daily; assay type: in vivo, mouse
Method: All animal studies were conducted in accordance with ethics and procedures covered by permit BS-2275 and BS-1975 issued by the Kantonales Veterinäramt Basel-Stadt and in strict adherence to guidelines of the Eidgenössisches Tierschutzgesetz and the Eidgenössische Tierschutzverordnung, Switzerland. All animal studies were approved by the internal ethics committee. All animals had access to food and water ad libitum and were identified with transponders. They were housed in a specific-pathogen-free facility in IVC racks under a 12 h–12 h light–dark cycle. To establish cell-line-derived xenograft models, 6–7-week-old female athymic nude (Crl:NU(NCr)-Foxn1^nu) or SCID-BEIGE (CB17.Cg-PrkdcscidLystbg-J/Crl) mice from Charles River were engrafted subcutaneously with 5 million tumour cells in HBSS (H6648, Sigma-Aldrich). For SNU-407, Lovo, IM95, RL95.2, Ishikawa and IGROV-1, the cells were concentrated in 50% Matrigel (354234, Corning). Patient-derived xenografts were induced and expanded by transplantation as previously described. […] For the efficacy experiment, mice were randomized into groups (n = 5–6) for a mean tumour size of 100–150 mm^3. […] Blood samples were collected on day 7 and 91. […] Tumour responses are reported with the measures of tumour volumes from the treatment start. […] Animals were randomized (n = 3) and tumour samples were collected at 0, 1, 4, 8 and 24 h on the first day and then collected 4 h after the last treatment on day 3, 8, 10, 14 (including a 24 h timepoint), 17 and 21. Tumours were excised, weighed, either frozen in liquid nitrogen and cryogenic dry pulverized with the CryoPrep system (model CP-02, Covaris) or processed to FFPE after fixation. […] On day 12, blood samples were collected for PK analysis. On the last day (3 h after the last treatment), tumours were excised, weighed, frozen in liquid nitrogen and cryogenic dry pulverized for PD analysis.

[2] = tested on: HCT116; test: CFA 10-14 day clonogenic assay; assay type: cell-based; conditions: Homo sapiens, HCT-116
[3] = tested on: OC314; test: 4 day proliferation assay (CellTiter-Glo); conditions: Homo sapiens, OC-314, 96 h, read-out: 4 day assay GI50

In the case of `CCc1c(N2CCN(C(=O)c3ncnc(C)c3O)CC2)c(=O)n2nc(C3=CCOCC3)nc2n1CC(=O)Nc1ccc(C(F)(F)F)cc1Cl` [HRO761], the “TVol, individual mouse” value ([1]; HRO761 60mg/kg, day 14 post 1st dose, 60 mg/kg) is reported as 168.86 mm3 and 112.65 mm3 and 68.51 mm3 and 225.46 mm3 and 143.2 mm3, the “Mean TVol” value ([1]; HRO761 60mg/kg, day 17 post 1st dose) is reported as 92.17 mm3 and the “TVol, individual mouse” value ([1]; HRO761 60mg/kg, day 17 post 1st dose, 60 mg/kg) is reported as 122.04 mm3 and 68.7 mm3 and 47.51 mm3 and 127.77 mm3 and 94.82 mm3. The “Mean TVol” value ([1]; HRO761 60mg/kg, day 21 post 1st dose) was 94.01 mm3, the “TVol, individual mouse” value ([1]; HRO761 60mg/kg, day 21 post 1st dose, 60 mg/kg) was 102.4 mm3 and 77.05 mm3 and 73.43 mm3 and 131.39 mm3 and 85.79 mm3 and the “Mean TVol” value ([1]; HRO761 60mg/kg, day 24 post 1st dose) was 58.88 mm3. The “TVol, individual mouse” value ([1]; HRO761 60mg/kg, day 24 post 1st dose, 60 mg/kg) was 71.44 mm3 and 52.46 mm3 and 38.57 mm3 and 82.39 mm3 and 49.52 mm3, the “Mean TVol” value ([1]; HRO761 60mg/kg, day 28 post 1st dose) was 51.50 mm3 and the “TVol, individual mouse” value ([1]; HRO761 60mg/kg, day 28 post 1st dose, 60 mg/kg) was 56.2 mm3 and 60.49 mm3 and 22.48 mm3 and 76.24 mm3 and 42.11 mm3. The “Mean TVol” value ([1]; HRO761 60mg/kg, day 31 post 1st dose) was 37.85 mm3, the “Mean TVol” value ([1]; HRO761 60mg/kg, day 35 post 1st dose) was 35.63 mm3 and the “Mean TVol” value ([1]; HRO761 60mg/kg, day 38 post 1st dose) was 32.12 mm3. For the same compound, the “Mean TVol” value ([1]; HRO761 60mg/kg, day 42 post 1st dose) was 26.69 mm3, the “Mean TVol” value ([1]; HRO761 60mg/kg, day 45 post 1st dose) was 28.41 mm3 and the “Mean TVol” value ([1]; HRO761 60mg/kg, day 49 post 1st dose) was 28.59 mm3. For the same compound, the “Mean TVol” value ([1]; HRO761 60mg/kg, day 52 post 1st dose) was 39.66 mm3, the “Mean TVol” value ([1]; HRO761 60mg/kg, day 56 post 1st dose) was 41.29 mm3 and the “Mean TVol” value ([1]; HRO761 60mg/kg, day 59 post 1st dose) was 58.21 mm3. The “Mean TVol” value ([1]; HRO761 60mg/kg, day 63 post 1st dose) was 63.07 mm3, the “Mean TVol” value ([1]; HRO761 60mg/kg, day 66 post 1st dose) was 73.43 mm3 and the “Mean TVol” value ([1]; HRO761 60mg/kg, day 70 post 1st dose) was 92.32 mm3. For the same compound, the “Mean TVol” value ([1]; HRO761 60mg/kg, day 73 post 1st dose) was 100.10 mm3, the “Mean TVol” value ([1]; HRO761 60mg/kg, day 76 post 1st dose) was 118.12 mm3 and the “Mean TVol” value ([1]; HRO761 60mg/kg, day 79 post 1st dose) was 144.54 mm3. The “Mean TVol” value ([1]; HRO761 60mg/kg, day 83 post 1st dose) was 167.90 mm3, the “Mean TVol” value ([1]; HRO761 60mg/kg, day 86 post 1st dose) was 197.43 mm3 and the “Mean TVol” value ([1]; HRO761 60mg/kg, day 90 post 1st dose) was 250.29 mm3. The “Mean TVol” value ([1]; HRO761 60mg/kg, day 92 post 1st dose) was 257.93 mm3, the “Mean TVol” value ([1]; HRO761 120mg/kg, day 0 post 1st dose) was 148.61 mm3 and the “Mean TVol” value ([1]; HRO761 120mg/kg, day 3 post 1st dose) was 165.08 mm3. The “Mean TVol” value ([1]; HRO761 120mg/kg, day 7 post 1st dose) was 155.01 mm3, the “Mean TVol” value ([1]; HRO761 120mg/kg, day 10 post 1st dose) was 143.90 mm3 and the “Mean TVol” value ([1]; HRO761 120mg/kg, day 14 post 1st dose) was 109.57 mm3. The “TVol, individual mouse” value ([1]; HRO761 120mg/kg, day 14 post 1st dose, 120 mg/kg) was 89.55 mm3 and 116.21 mm3 and 96.68 mm3 and 110.56 mm3 and 134.85 mm3, the “Mean TVol” value ([1]; HRO761 120mg/kg, day 17 post 1st dose) was 76.89 mm3 and the “TVol, individual mouse” value ([1]; HRO761 120mg/kg, day 17 post 1st dose, 120 mg/kg) was 65.99 mm3 and 76.61 mm3 and 69.65 mm3 and 76.31 mm3 and 95.9 mm3. For the same compound, the “Mean TVol” value ([1]; HRO761 120mg/kg, day 21 post 1st dose) was 60.65 mm3, the “TVol, individual mouse” value ([1]; HRO761 120mg/kg, day 21 post 1st dose, 120 mg/kg) was 36.03 mm3 and 67.66 mm3 and 49.83 mm3 and 57.7 mm3 and 92.01 mm3 and the “Mean TVol” value ([1]; HRO761 120mg/kg, day 24 post 1st dose) was 40.88 mm3. The “TVol, individual mouse” value ([1]; HRO761 120mg/kg, day 24 post 1st dose, 120 mg/kg) was 38.27 mm3 and 45.09 mm3 and 38.11 mm3 and 31.94 mm3 and 50.97 mm3, the “Mean TVol” value ([1]; HRO761 120mg/kg, day 28 post 1st dose) was 35.35 mm3 and the “TVol, individual mouse” value ([1]; HRO761 120mg/kg, day 28 post 1st dose, 120 mg/kg) was 32.65 mm3 and 37.62 mm3 and 34.55 mm3 and 23.01 mm3 and 48.93 mm3. For the same compound, the “Mean TVol” value ([1]; HRO761 120mg/kg, day 31 post 1st dose) was 23.02 mm3, the “Mean TVol” value ([1]; HRO761 120mg/kg, day 35 post 1st dose) was 18.60 mm3 and the “Mean TVol” value ([1]; HRO761 120mg/kg, day 38 post 1st dose) was 15.04 mm3. For the same compound, the “Mean TVol” value ([1]; HRO761 120mg/kg, day 42 post 1st dose) was 15.24 mm3, the “Mean TVol” value ([1]; HRO761 120mg/kg, day 45 post 1st dose) was 22.14 mm3 and the “Mean TVol” value ([1]; HRO761 120mg/kg, day 49 post 1st dose) was 17.54 mm3. The “Mean TVol” value ([1]; HRO761 120mg/kg, day 52 post 1st dose) was 14.62 mm3, the “Mean TVol” value ([1]; HRO761 120mg/kg, day 56 post 1st dose) was 23.36 mm3 and the “Mean TVol” value ([1]; HRO761 120mg/kg, day 59 post 1st dose) was 24.12 mm3. The “Mean TVol” value ([1]; HRO761 120mg/kg, day 63 post 1st dose) was 25.71 mm3, the “Mean TVol” value ([1]; HRO761 120mg/kg, day 66 post 1st dose) was 34.04 mm3 and the “Mean TVol” value ([1]; HRO761 120mg/kg, day 70 post 1st dose) was 39.42 mm3. For the same compound, the “Mean TVol” value ([1]; HRO761 120mg/kg, day 73 post 1st dose) was 45.77 mm3, the “Mean TVol” value ([1]; HRO761 120mg/kg, day 76 post 1st dose) was 45.68 mm3 and the “Mean TVol” value ([1]; HRO761 120mg/kg, day 79 post 1st dose) was 54.31 mm3. The “Mean TVol” value ([1]; HRO761 120mg/kg, day 83 post 1st dose) was 66.91 mm3, the “Mean TVol” value ([1]; HRO761 120mg/kg, day 86 post 1st dose) was 85.46 mm3 and the “Mean TVol” value ([1]; HRO761 120mg/kg, day 90 post 1st dose) was 91.43 mm3. For the same compound, the “Mean TVol” value ([1]; HRO761 120mg/kg, day 92 post 1st dose) was 94.97 mm3, the Best average response ([1]; SW48, colorectal carcinoma, 60 or 120 mg/kg) was -90 and the tumour regressions ([1]; higher doses than 20 mg per kg, once daily oral, up to 60 days) was 75–90%. For the same compound, the GI50 [2] was 59 nM and the GI50 [3] was no less than 10000 nM.

Source: paper PMC11078746 (Nature, 2024)
